Assay results: patent US10173991B2, “Sulfone amide linked benzothiazole inhibitors of endothelial lipase” (BRISTOL-MYERS SQUIBB COMPANY, priority 2014, dated 2019)
Read-outs that look alike come from different tables or passages of the source.

Biological target: Endothelial lipase (EL) (Homo sapiens (Human), UniProt Q9Y5X9)
Experiment: Endothelial lipase (EL) enzymatic assay with fluorescent substrate A10070 in DMPG vesicles
Type: biochemical
In short: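 Compounds were preincubated with enzyme for 30 min at 37° C before FRET-substrate vesicles (A10070 in DMPG, 0.11 mole fraction) were added. Reaction rates were obtained from the 300–900 sec slope of fluorescence at 490/530 nm.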

[1] = EL from conditioned media of HT-1080 cells, 30 min preincubation at 37° C.

Chain of Endothelial lipase (EL) (Q9Y5X9 21-500): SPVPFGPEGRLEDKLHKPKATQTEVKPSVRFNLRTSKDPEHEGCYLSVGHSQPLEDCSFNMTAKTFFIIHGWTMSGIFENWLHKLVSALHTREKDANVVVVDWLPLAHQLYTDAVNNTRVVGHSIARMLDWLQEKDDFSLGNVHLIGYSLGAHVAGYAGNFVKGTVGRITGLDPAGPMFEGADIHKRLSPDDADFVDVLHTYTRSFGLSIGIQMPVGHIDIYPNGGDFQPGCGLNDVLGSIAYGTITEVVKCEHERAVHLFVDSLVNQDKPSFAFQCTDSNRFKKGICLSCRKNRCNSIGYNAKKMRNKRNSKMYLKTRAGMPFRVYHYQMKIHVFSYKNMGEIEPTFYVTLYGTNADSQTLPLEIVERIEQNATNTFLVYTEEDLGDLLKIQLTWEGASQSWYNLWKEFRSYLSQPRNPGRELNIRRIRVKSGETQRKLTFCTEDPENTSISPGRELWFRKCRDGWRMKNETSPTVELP

Structure (SMILES) | IC50 [1] | IC50
O=C(CCc1ccccc1)Nc1ccc(-c2cc3sc(C(C(=O)NCC(=O)NC4CC4)S(=O)(=O)CCC(F)(F)F)nc3cc2F)cc1 (stereo not shown) [Example 575, N-{4-[2-({[(Cyclopropylcarbamoyl)methyl]carbamoyl}(3,3,3-trifluoropropanesulfonyl)methyl)-5-fluoro-1,3-benzothiazol-6-yl]phenyl}-3-phenylpropanamide] | 0.9 nM | 
CC(C)S(=O)(=O)C(C(=O)NCC(=O)NC1CC1)c1nc2cc(C(F)(F)F)c(Br)cc2s1 (stereo not shown) [Example 179, 2-[6-bromo-5-(trifluoromethyl)-1,3-benzothiazol-2-yl]-N-[(cyclopropyl-carbamoyl)methyl]-2-(propane-2-sulfonyl) acetamide] |  | 82 nM
COCCS(=O)(=O)C(C(=O)NCC(=O)NC1CC1)c1nc2ccc(-c3ccc(N(C)C(=O)OC(C)(C)C)cc3)cc2s1 (stereo not shown) [Example 60, tert-Butyl N-{4-[2-({[(cyclopropylcarbamoyl)methyl]carbamoyl}(2-methoxyethanesulfonyl)methyl)-1,3-benzothiazol-6-yl]phenyl}-N-methylcarbamate] | 3 nM | 
COCCS(=O)(=O)C(C(=O)NCC(=O)NC1CC1)c1nc2c(F)cc(-c3ccc(=O)n(C(C)C)c3)cc2s1 (stereo not shown) [Example 225, N-[(cyclopropyl-carbamoyl)methyl]-2-{4-fluoro-6-[6-oxo-1-(propan-2-yl)-1,6-dihydropyridin-3-yl]-1,3-benzothiazol-2-yl}-2-(2-methoxyethane-sulfonyl) acetamide] |  | 88 nM
COCCNC(=O)CNC(=O)C(c1nc2ccc(-c3ccn(C)c(=O)c3)cc2s1)S(=O)(=O)c1ccc(F)cc1 (stereo not shown) [Example 463, 2-(4-fluorobenze-nesulfonyl)-N-{[(2-methoxyethyl)carbamoyl]methyl}-2-[6-(1-methyl-2-oxo-1,2-dihydropyridin-4-yl)-1,3-benzothiazol-2-yl]acetamide] |  | 24 nM
CS(=O)(=O)C(C(=O)NCC(=O)NC1CC1)c1nc2cc(F)c(-c3ccc(F)nc3)cc2s1 (stereo not shown) [Example 190, N-[(cyclopropyl-carbamoyl)methyl]-2-[5-fluoro-6-(6-fluoropyridin-3-yl)-1,3-benzothiazol-2-yl]-2-methanesulfonyl-acetamide] |  | 16 nM
Cc1cc2nc(C(C(=O)NCC(=O)NC3CC3)S(=O)(=O)C(C)C)sc2cc1-c1ccc(C(=O)N(C)C)cc1 (stereo not shown) [Example 215, 4-[2-({[(cyclopropyl-carbamoyl)methyl]carbamoyl} (propane-2-sulfonyl)methyl)-5-methyl-1,3-benzothiazol-6-yl]-N,N-dimethyl-benzamide] |  | 19 nM
O=C(CNC(=O)C(c1nc2ccc(-c3ccnc(O)c3)cc2s1)S(=O)(=O)c1ccc(F)cc1)NC1CC1 (stereo not shown) [Example 599, N-[(cyclopropyl-carbamoyl)methyl]-2-(4-fluorobenzene-sulfonyl)-2-[6-(2-hydroxypyridin-4-yl)-1,3-benzothiazol-2-yl]acetamide] |  | 27 nM
COCCS(=O)(=O)C(C(=O)NCC(=O)NC1CC1)c1nc2cc(C(F)(F)F)c(-c3cnc(C)nc3)cc2s1 (stereo not shown) [Example 178, N-[(cyclopropyl-carbamoyl)methyl]-2-(2-methoxyethane-sulfonyl)-2-[6-(2-methylpyrimidin-5-yl)-5-(trifluoromethyl)-1,3-benzothiazol-2-yl]acetamide] |  | 56 nM
COCCS(=O)(=O)C(C(=O)NCC(=O)NC1CC1)c1nc2cc(C)c(-c3cnnc(C)c3)cc2s1 (stereo not shown) [Example 186, N-[(cyclopropyl-carbamoyl)methyl]-2-(2-methoxyethane-sulfonyl)-2-[5-methyl-6-(6-methylpyridazin-4-yl)-1,3-benzothiazol-2-yl]acetamide] |  | 40 nM
O=C(CNC(=O)C(c1nc2ccc(-c3ccc(F)nc3)cc2s1)S(=O)(=O)N1CCOCC1)NC1CC1 (stereo not shown) [Example 483, N-[(cyclopropyl-carbamoyl)methyl]-2-[6-(6-fluoropyridin-3-yl)-1,3-benzothiazol-2-yl]-2-(morpholine-4-sulfonyl)acetamide] |  | 299 nM
COCCS(=O)(=O)C(C(=O)NCC(=O)NC1CC1)c1nc2ccc(-c3cnc(F)c(C)c3)cc2s1 (stereo not shown) [Example 294, N-[(cyclopropyl-carbamoyl)methyl]-2-[6-(6-fluoro-5-methylpyridin-3-yl)-1,3-benzothiazol-2-yl]-2-(2-methoxyethane-sulfonyl)acetamide] |  | 36 nM
Cn1ccc(-c2cc(F)c3nc(C(C(=O)NCC(=O)NC4CC4)S(=O)(=O)c4ccc(F)cc4)sc3c2)cc1=O (stereo not shown) [Example 473, N-[(cyclopropyl-carbamoyl)methyl]-2-[4-fluoro-6-(1-methyl-2-oxo-1,2-dihydropyridin-4-yl)-1,3-benzothiazol-2-yl]-2-(4-fluorobenzene-sulfonyl)acetamide] |  | 77 nM
COCCS(=O)(=O)C(C(=O)NCC(=O)NC1CC1)c1nc2cc(F)c(-c3ccnn3C)cc2s1 (stereo not shown) [Example 167, N-[(cyclopropyl-carbamoyl)methyl]-2-[5-fluoro-6-(1-methyl-1H-pyrazol-5-yl)-1,3-benzothiazol-2-yl]-2-(2-methoxyethane-sulfonyl) acetamide] |  | 23 nM
CS(=O)(=O)C(C(=O)NCC(=O)NC1CC1)c1nc2cc(-c3ccccc3)ccc2s1 (stereo not shown) [Example 610, N-[(cyclopropyl-carbamoyl)methyl]-2-methanesulfonyl-2-(5-phenyl-1,3-benzothiazol-2-yl)acetamide] |  | 40 nM

The remaining molecules from weak to strong by IC50, led by results:

IC50 [1] | IC50 | Structure (SMILES)
 | 12 nM | Cc1ccc(-c2cc3sc(C(C(=O)NCC(=O)NC4CC4)S(=O)(=O)C(C)C)nc3cc2F)cn1 (stereo not shown) [Example 246, N-[(cyclopropyl-carbamoyl)methyl]-2-[5-fluoro-6-(6-methylpyridin-3-yl)-1,3-benzothiazol-2-yl]-2-(propane-2-sulfonyl)acetamide]
 | 12 nM | COCCNC(=O)c1cccc(-c2cc3sc(C(C(=O)NCC(=O)NC4CC4)S(=O)(=O)C(C)C)nc3cc2C)c1 (stereo not shown) [Example 210, 3-[2-({[(cyclopropyl-carbamoyl)methyl]carbamoyl} (propane-2-sulfonyl)methyl)-5-methyl-1,3-benzothiazol-6-yl]-N-(2-methoxyethyl) benzamide]
 | 11 nM | COCCOC(=O)Nc1ccc(-c2cc3sc(C(C(=O)NCC(=O)NC4CC4)S(C)(=O)=O)nc3cc2F)cn1 (stereo not shown) [Example 36, 2-methoxyethyl N-{5-[2-({[(cyclopropyl-carbamoyl)methyl]carbamoyl} (methanesulfonyl)methyl)-5-fluoro-1,3-benzothiazol-6-yl]pyridin-2-yl}carbamate]
 | 11 nM | COCCS(=O)(=O)C(C(=O)NCC(=O)NC1CC1)c1nc2cc(F)c(-c3cnc(C)nc3)cc2s1 (stereo not shown) [Example 156, N-[(cyclopropyl-carbamoyl)methyl]-2-[5-fluoro-6-(2-methylpyrimidin-5-yl)-1,3-benzothiazol-2-yl]-2-(2-methoxyethane-sulfonyl) acetamide]
 | 8 nM | COC(=O)N(C)c1cccc(-c2cc3sc(C(C(=O)NCC(=O)NC4CC4)S(C)(=O)=O)nc3cc2F)c1 (stereo not shown) [Example 547, methyl N-{3-[2-({[(cyclopropyl-carbamoyl)methyl]carbamoyl} (methanesulfonyl)methyl)-5-fluoro-1,3-benzothiazol-6-yl]phenyl}-N-methylcarbamate]
 | 8 nM | CC(C)S(=O)(=O)C(C(=O)NCC(=O)NC1CC1)c1nc2cc(-c3cn(C)c(=O)c4ccccc34)c(F)cc2s1 (stereo not shown) [Example 276, N-[(cyclopropyl-carbamoyl)methyl]-2-[6-fluoro-5-(2-methyl-1-oxo-1,2-dihydro-isoquinolin-4-yl)-1,3-benzothiazol-2-yl]-2-(propane-2-sulfonyl) acetamide]
 | 4 nM | CC(C)c1ccc(-c2cc3nc(C(C(=O)NCC(=O)NC4CC4)S(=O)(=O)C(C)C)sc3cc2F)cn1 (stereo not shown) [Example 265, N-[(cyclopropyl-carbamoyl)methyl]-2-{6-fluoro-5-[6-(propan-2-yl)pyridin-3-yl]-1,3-benzothiazol-2-yl}-2-(propane-2-sulfonyl)acetamide]
 | 4 nM | COCCS(=O)(=O)C(C(=O)NCC(=O)NC1CC1)c1nc2cc(F)c(-c3cccc(NC(=O)OCc4ccccc4)c3)cc2s1 (stereo not shown) [Example 549, benzyl N-{3-[2-({[(cyclopropyl-carbamoyl)methyl]carbamoyl}(2-methoxyethane-sulfonyl)methyl)-5-fluoro-1,3-benzothiazol-6-yl]phenyl} carbamate]
 | 4 nM | COC(=O)N(C)c1ccc(-c2cc3sc(C(C(=O)NCC(=O)NC4CC4)S(=O)(=O)CCC(F)(F)F)nc3cc2F)cc1 (stereo not shown) [Example 33, methyl N-{4-[2-({[(cyclopropyl-carbamoyl)methyl]carbamoyl}(3,3,3-trifluoropropane-sulfonyl)methyl)-5-fluoro-1,3-benzothiazol-6-yl]phenyl}-N-methylcarbamate]
 | 3 nM | CC(C)S(=O)(=O)C(C(=O)NCC(=O)NC1CC1)c1nc2cc(-c3cccc4c3cnn4C)c(F)cc2s1 (stereo not shown) [Example 274, N-[(cyclopropyl-carbamoyl)methyl]-2-[6-fluoro-5-(1-methyl-1H-indazol-4-yl)-1,3-benzothiazol-2-yl]-2-(propane-2-sulfonyl)acetamide]
 | 3 nM | CN(C)S(=O)(=O)C(C(=O)NCC(=O)NC1CC1)c1nc2c(F)cc(-c3ccc(-n4ccccc4=O)cc3)cc2s1 (stereo not shown) [Example 497, N-[(cyclopropyl-carbamoyl)methyl]-2-(dimethyl-sulfamoyl)-2-{4-fluoro-6-[4-(2-oxo-1,2-dihydropyridin-1-yl)phenyl]-1,3-benzothiazol-2-yl}acetamide]
 | 2 nM | COCC(C)(C)NC(=O)c1ccc(-c2ccc3nc(C(C(=O)NCC(=O)NC4CC4)S(C)(=O)=O)sc3c2)cc1 (stereo not shown) [Example 560, 4-[2-({[(cyclopropyl-carbamoyl)methyl]carbamoyl} (methanesulfonyl)methyl)-1,3-benzothiazol-6-yl]-N-(1-methoxy-2-methylpropan-2-yl)benzamide]
 | 1 nM | CCCS(=O)(=O)C(C(=O)NCC(=O)NC1CC1)c1nc2cc(F)c(-c3ccc(NC(=O)OCc4ccccc4)cc3)cc2s1 (stereo not shown) [Example 52, benzyl N-{4-[2-({[(cyclopropyl-carbamoyl)methyl]carbamoyl} (propane-1-sulfonyl)methyl)-5-fluoro-1,3-benzothiazol-6-yl]phenyl} carbamate]
